Measured values as given in patent publication US8513220B2, “Aromatic compounds having sphingosine-1-phosphonate (S1P) receptor activity” (Allergan, Inc., priority 2010, dated 2013).

Experiments:
human S1P1 receptor = target: T1, human S1P1 receptor (Homo sapiens, UniProt P21453); assay: GTP γ35S binding assay for S1P1 activity; format: biochemical; conditions: for activation at 5 µM: S1P1 receptor GTPγ^35S, read-out: % STIMULATION @ 5 μM; for EC50: S1P1 receptor, membranes, compounds 0.08 to 5,000 nM, read-out: GTPγ^35S EC50
T1 construct: expressed in transfected cells; membranes used
Protocol: Novel compounds were synthesized and tested for S1P1 activity using the GTP γ^35S binding assay. These compounds may be assessed for their ability to activate or block activation of the human S1P1 receptor in cells stably expressing the S1P1 receptor. GTP γ^35S binding was measured in the medium containing (mM) HEPES 25, pH 7.4, MgCl2 10, NaCl 100, dithitothreitol 0.5, digitonin 0.003%, 0.2 nM GTP γ^35S, and 5 μg membrane protein in a volume of 150 μl. Test compounds were included in the concentration range from 0.08 to 5,000 nM unless indicated otherwise. Membranes were incubated with 100 μM 5′-adenylylimmidodiphosphate for 30 min, and subsequently with 10 μM GDP for 10 min on ice. Drug solutions and membrane were mixed, and then reactions were initiated by adding GTP γ^35S and continued for 30 min at 25° C. Reaction mixtures were filtered over Whatman GF/B filters under vacuum, and washed three times with 3 mL of ice-cold buffer (HEPES 25, pH7.4, MgCl2 10 and NaCl 100). Filters were dried and mixed with scintillant, and counted for ^35S activity using a […]. Agonist-induced GTP γ^35S binding was obtained by subtracting that in the absence of agonist. Binding data were analyzed using a non-linear regression method. In case of antagonist assay, the reaction mixture contained 10 nM S1P in the presence of test antagonist at concentrations ranging from 0.08 to 5000 nM.
Activity potency: S1P1 receptor from GTP γ^35S: nM, (EC50)

lymphocytes in blood = assay: Lymphopenia assay in mice (in vivo blood lymphocyte depletion); conditions: female C57BL6 mice, 10 mg/Kg subcutaneous
Protocol: Test drugs are prepared in a solution containing 3% (w/v) 2-hydroxy propyl β-cyclodextrin (HPBCD) and 1% DMSO to a final concentration of 1 mg/ml, and subcutaneously injected to female C57BL6 mice (CHARLES RIVERS) weighing 20-25 g at the dose of 10 mg/Kg. Blood samples are obtained by puncturing the submandibular skin with a Goldenrod animal lancet at 5, 24, 48, 72, and 96 hrs post drug application. Blood is collected into microvettes (SARSTEDT) containing EDTA tripotassium salt. Lymphocytes in blood samples are counted using a HEMAVET Multispecies Hematology System, HEMAVET HV950FS (Drew Scientific Inc.). (Hale, J. et al Bioorg. & Med. Chem. Lett. 14 (2004) 3351).
A lymphopenia assay in mice; as previously described, was employed to measure the in vivo blood lymphocyte depletion after dosing with: • (3-{[5-(4-Hexyl-phenyl)-6-thiophen-2-yl-pyridin-2-ylmethyl]-amino}-propyl)-phosphonic acid, Compound 2 (FIG. 1); • (3-{[6-(5-Fluoro-thiophen-2-yl)-5-(4-hexyl-phenyl)-pyridin-2-ylmethyl]-amino}-propyl)-phosphonic acid, Compound 3 (FIG. 2); • (3-{[5-(4-Hexyl-3-propyl-phenyl)-6-thiophen-2-yl-pyridin-2-ylmethyl]-amino}-propyl)-phosphonic acid, Compound 4 (FIG. 3); • [3-({5-[4-(3-Phenyl-propyl)-phenyl]-6-thiophen-2-yl-pyridin-2-ylmethyl}-amino)-propyl]-phosphonic acid, Compound 5 (FIG. 4); • (3-{[5-(4-Hexyl-phenyl)-6-thiophen-3-yl-pyridin-2-ylmethyl]-amino}-propyl)-phosphonic acid, Compound 6 (FIG. 5); • (3-{[5-(4-Hexyl-phenyl)-6-oxazol-4-yl-pyridin-2-ylmethyl]-amino}-propyl)-phosphonic acid, Compound 7 (FIG. 6); • (3-{[6-Furan-2-yl-5-(4-hexyl-phenyl)-pyridin-2-ylmethyl]-amino}-propyl)-phosphonic acid, Compound 9 (FIG. 7); • [3-({6-Phenyl-5-[4-(3-phenyl-propyl)-phenyl]-pyridin-2-ylmethyl}-amino)-propyl]-phosphonic acid, Compound 14 (FIGS. 8) and • (3-{[5-(4-Hexyl-3-propyl-phenyl)-6-phenyl-pyridin-2-ylmethyl]-amino}-propyl)-phosphonic acid, Compound 16 (FIG. 9).
These S1P agonist (or modulator) is useful for S1P-related diseases, and exemplified by the lymphopenia in vivo response. In general, test drugs Compound 3 and 16 were prepared in a solution containing 3% (w/v) 2-hydroxy propyl β-cyclodextrin (HPBCD) and 1% DMSO to a final concentration of 1 mg/ml, and subcutaneously injected to female C57BL6 mice (CHARLES RIVERS) weighing 20-25 g at the dose of 10 mg/Kg. Blood samples were obtained by puncturing the submandibular skin with a Goldenrod animal lancet at 5, 24, 48, and 72 hrs post drug application. Blood was collected into microvettes (SARSTEDT) containing EDTA tripotassium salt. Lymphocytes in blood samples were counted using a HEMAVET Multispecies Hematology System, HEMAVET HV950FS (Drew Scientific Inc.). Results are shown in the following figures below that depict lowered lymphocyte count after 5 hours (<1 number of lymphocytes 10^3/μL blood).

T1 sequence (P21453 whole entry): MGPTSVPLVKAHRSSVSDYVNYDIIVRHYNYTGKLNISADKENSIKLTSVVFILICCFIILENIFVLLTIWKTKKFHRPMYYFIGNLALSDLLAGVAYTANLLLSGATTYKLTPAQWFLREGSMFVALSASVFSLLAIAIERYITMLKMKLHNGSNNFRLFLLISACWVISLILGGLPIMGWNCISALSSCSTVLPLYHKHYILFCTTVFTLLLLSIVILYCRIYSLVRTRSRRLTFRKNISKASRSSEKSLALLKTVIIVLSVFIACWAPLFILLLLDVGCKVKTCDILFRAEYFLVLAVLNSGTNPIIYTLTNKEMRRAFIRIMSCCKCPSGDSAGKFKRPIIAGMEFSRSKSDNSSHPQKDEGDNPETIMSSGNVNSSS

Compound | activation at 5 µM (human S1P1 receptor) | EC50 (human S1P1 receptor) | number of lymphocytes found in the blood (lymphocytes in blood; after 24 h of drug application) | number of lymphocytes found in the blood (lymphocytes in blood; after 72 h of drug application) | number of lymphocytes found in the blood (lymphocytes in blood; after 48 h of drug application) | number of lymphocytes found in the blood (lymphocytes in blood; after 5 h of drug application)
CCCCCCc1ccc(-c2ccc(CNCCCP(=O)(O)O)cc2-c2ccccc2)nc1 [Compound 1, (3-{[6-(5-Hexyl-pyridin-2-yl)-biphenyl-3-ylmethyl]-amino}-propyl)-phosphonic acid] | 79.4% | 317 nM | – | – | – | –
CCCCCCc1ccc(-c2ccc(CNCCCP(=O)(O)O)nc2-c2cccs2)cc1 [Compound 2, (3-{[5-(4-Hexyl-phenyl)-6-thiophen-2-yl-pyridin-2-ylmethyl]-amino}-propyl)-phosphonic acid] | 68.1% | 5.26 nM | reduced | – | – | –
CCCCCCc1ccc(-c2ccc(CNCCCP(=O)(O)O)nc2-c2ccc(F)s2)cc1 [Compound 3, (3-{[6-(5-Fluoro-thiophen-2-yl)-5-(4-hexyl-phenyl)-pyridin-2-ylmethyl]-amino}-propyl)-phosphonic acid] | 111% | 25.1 nM | – | reduced | – | –
CCCCCCc1ccc(-c2ccc(CNCCCP(=O)(O)O)nc2-c2cccs2)cc1CCC [Compound 4, (3-{[5-(4-Hexyl-3-propyl-phenyl)-6-thiophen-2-yl-pyridin-2-ylmethyl]-amino}-propyl)-phosphonic acid] | 79.1% | 7.72 nM | – | reduced | – | –
O=P(O)(O)CCCNCc1ccc(-c2ccc(CCCc3ccccc3)cc2)c(-c2cccs2)n1 [Compound 5, [3-({5-[4-(3-Phenyl-propyl)-phenyl]-6-thiophen-2-yl-pyridin-2-ylmethyl}-amino)-propyl]-phosphonic acid] | 91.1% | 2.36 nM | – | – | reduced | –
CCCCCCc1ccc(-c2ccc(CNCCCP(=O)(O)O)nc2-c2ccsc2)cc1 [Compound 6, (3-{[5-(4-Hexyl-phenyl)-6-thiophen-3-yl-pyridin-2-ylmethyl]-amino}-propyl)-phosphonic acid] | 76.9% | 9.19 nM | – | – | reduced | –
CCCCCCc1ccc(-c2ccc(CNCCCP(=O)(O)O)nc2-c2cocn2)cc1 [Compound 7, (3-{[5-(4-Hexyl-phenyl)-6-oxazol-4-yl-pyridin-2-ylmethyl]-amino}-propyl)-phosphonic acid] | 86.1% | 0.87 nM | reduced | – | – | –
CCCCCCc1ccc(-c2ccc(CNCCCP(=O)(O)O)nc2-c2nccs2)cc1 [Compound 8, (3-{[5-(4-Hexyl-phenyl)-6-thiazol-2-yl-pyridin-2-ylmethyl]-amino}-propyl)-phosphonic acid] | 89.3% | 6.52 nM | – | – | – | –
CCCCCCc1ccc(-c2ccc(CNCCCP(=O)(O)O)nc2-c2ccco2)cc1 [Compound 9, (3-{[6-Furan-2-yl-5-(4-hexyl-phenyl)-pyridin-2-ylmethyl]-amino}-propyl)-phosphonic acid] | 88.6% | 0.44 nM | – | – | reduced | –
O=P(O)(O)CCCNCc1ccc(-c2ccc(CCC(F)(F)C(F)(F)C(F)(F)C(F)(F)F)cc2)c(-c2ccccc2)c1 [Compound 11, (3-{[4-(3,3,4,4,5,5,6,6,6-Nonafluoro-hexyl)-[1,1′;2′,1″]terphenyl-4′-ylmethyl]-amino}-propyl)-phosphonic acid] | 71.8% | 416 nM | – | – | – | –
O=P(O)(O)CCCNCc1ccc(-c2ccc(CCCc3ccccc3)cc2)c(-c2ccccc2)c1 [Compound 12, (3-{[4-(3-Phenyl-propyl)-[1,1′;2′,1″]terphenyl-4′-ylmethyl]-amino}-propyl)-phosphonic acid] | 64% | 625 nM | – | – | – | –
O=P(O)(O)CCCNCc1ccc(-c2ccc(CCCc3ccccc3)cc2)c(-c2cccc(Cl)c2)n1 [Compound 13, [3-({6-(3-Chloro-phenyl)-5-[4-(3-phenyl-propyl)-phenyl]-pyridin-2-ylmethyl}-amino)-propyl]-phosphonic acid] | 64% | 2430 nM | – | – | – | –
O=P(O)(O)CCCNCc1ccc(-c2ccc(CCCc3ccccc3)cc2)c(-c2ccccc2)n1 [Compound 14, [3-({6-Phenyl-5-[4-(3-phenyl-propyl)-phenyl]-pyridin-2-ylmethyl}-amino)-propyl]-phosphonic acid] | 86.6% | 93.8 nM | – | – | – | reduced

Second part, led by results:

activation at 5 µM (human S1P1 receptor) | EC50 (human S1P1 receptor) | Compound | number of lymphocytes found in the blood (lymphocytes in blood; after 24 h of drug application) | number of lymphocytes found in the blood (lymphocytes in blood; after 72 h of drug application) | number of lymphocytes found in the blood (lymphocytes in blood; after 48 h of drug application) | number of lymphocytes found in the blood (lymphocytes in blood; after 5 h of drug application)
73.1% | 29.6 nM | CCCCCCc1ccc(-c2ccc(CNCCCP(=O)(O)O)nc2-c2ccccc2)cc1CCC [Compound 16, (3-{[5-(4-Hexyl-3-propyl-phenyl)-6-phenyl-pyridin-2-ylmethyl]-amino}-propyl)-phosphonic acid] | – | – | – | reduced
83.9% | 2200 nM | CCCCCOc1ccc(-c2ccc(CNCCCP(=O)(O)O)nc2-c2cccc(F)c2)cc1 [Compound 17, (3-{[6-(3-Fluoro-phenyl)-5-(4-pentyloxy-phenyl)-pyridin-2-ylmethyl]-amino}-propyl)-phosphonic acid] | – | – | – | –
104% | 472 nM | CCCCCOc1ccc(-c2ccc(CNCCCP(=O)(O)O)nc2-c2ccc(F)cc2)cc1 [Compound 18, (3-{[6-(4-Fluoro-phenyl)-5-(4-pentyloxy-phenyl)-pyridin-2-ylmethyl]-amino}-propyl)-phosphonic acid] | – | – | – | –
95.5% | 358 nM | CCCCCOc1ccc(-c2ccc(CNCCCP(=O)(O)O)nc2-c2ccccc2)cc1 [Compound 19, (3-{[5-(4-Pentyloxy-phenyl)-6-phenyl-pyridin-2-ylmethyl]-amino}-propyl)-phosphonic acid] | – | – | – | –
94.7% | 833 nM | CCCCCCc1ccc(-c2ccc(CNCCCP(=O)(O)O)cc2-c2ccccc2)cn1 [Compound 20, (3-{[6-(6-Hexyl-pyridin-3-yl)-biphenyl-3-ylmethyl]-amino}-propyl)-phosphonic acid] | – | – | – | –
89.7% | 771 nM | CCCCCCCCc1ccc(-c2ccc(CNCCCP(=O)(O)O)cc2-c2ccccc2)cn1 [Compound 22, (3-{[6-(6-Octyl-pyridin-3-yl)-biphenyl-3-ylmethyl]-amino}-propyl)-phosphonic acid] | – | – | – | –
112% | 252 nM | CCCCCCc1ccc(-c2ccc(CNCCCP(=O)(O)O)nc2-c2ccccc2)cc1 [Compound 27, (3-{[5-(4-Hexyl-phenyl)-6-phenyl-pyridin-2-ylmethyl]-amino}-propyl)-phosphonic acid] | – | – | – | –
